Data reported in ChEMBL document CHEMBL4699468, “Structural hybridization as a facile approach to new drug candidates” (Bioorg Med Chem Lett, 2020).
Converted amounts (≈) assume the structure as drawn. Each block holds one compound with its values, some of them ahead of it.

How the values were obtained:
MCF7 = assay: Cytotoxicity against human MCF7 by microculture tetrazolium assay; type: functional, cell-based
Escherichia coli [1] = assay: Antibacterial activity against Escherichia coli; type: functional
Staphylococcus aureus [2] = assay: Antibacterial activity against Staphylococcus aureus; type: functional
Pseudomonas aeruginosa [3] = assay: Antibacterial activity against Pseudomonas aeruginosa ATCC 91433; type: functional
Plasmodium falciparum [4] = assay: Antiplasmodial activity against Plasmodium falciparum W2; type: functional, organism-based
Plasmodium falciparum [5] = assay: Antiplasmodial activity against chloroquine-resistant Plasmodium falciparum Dd2 infected in human erythrocytes incubated for 72 hrs by SYBR green staining based fluorescence assay; type: functional, organism-based; settings: Dd2, 72 h
Plasmodium falciparum [6] = assay: Antiplasmodial activity against chloroquine-resistant Plasmodium falciparum K1 infected in human erythrocytes incubated for 72 hrs by SYBR green staining based fluorescence assay; type: functional, organism-based; settings: K1, 72 h
Escherichia coli [7] = assay: Antibacterial activity against Escherichia coli incubated for 18 hrs by agar dilution method; type: functional
Staphylococcus aureus [8] = assay: Antibacterial activity against Staphylococcus aureus incubated for 18 hrs by agar dilution method; type: functional
Citrobacter freundii = assay: Antibacterial activity against Citrobacter freundii incubated for 18 hrs by agar dilution method; type: functional
Enterobacter cloacae = assay: Antibacterial activity against Enterobacter cloacae incubated for 18 hrs by agar dilution method; type: functional
Hafnia alvei = assay: Antibacterial activity against Enterobacter hafniae incubated for 18 hrs by agar dilution method; type: functional
Klebsiella aerogenes = assay: Antibacterial activity against Klebsiella aerogenes incubated for 18 hrs by agar dilution method; type: functional
Providencia rettgeri = assay: Antibacterial activity against Proteus rettgeri incubated for 18 hrs by agar dilution method; type: functional
Morganella morganii [9] = assay: Antibacterial activity against Proteus morganii incubated for 18 hrs by agar dilution method; type: functional
Morganella morganii [10] = assay: Antibacterial activity against Proteus morganii NCTC235 incubated for 18 hrs by agar dilution method; type: functional
Proteus mirabilis = assay: Antibacterial activity against Proteus mirabilis 431 incubated for 18 hrs by agar dilution method; type: functional
Plasmodium falciparum [11] = assay: Antiplasmodial activity against […] Plasmodium falciparum 3D7 infected in human erythrocytes incubated for 72 hrs by SYBR green staining based fluorescence assay; type: functional, organism-based; settings: 3D7, 72 h
MDA-MB-231 = assay: Growth inhibition of human MDA-MBA-231 cells incubated for 72 hrs by MTT assay; type: functional, cell-based; settings: MDA-MB-231, 72 h
A549 = assay: Growth inhibition of human A549 cells incubated for 72 hrs by MTT assay; type: functional, cell-based; settings: A549, 72 h
HT-29 = assay: Growth inhibition of human HT-29 cells incubated for 72 hrs by MTT assay; type: functional, cell-based; settings: HT-29, 72 h
Human betaherpesvirus 5 = assay: Antiviral activity against GFP-transfected Human cytomegalovirus AD169 infected in human HFF cells measured after 7 days by GFP fluorometry; type: functional, cell-based; settings: Human betaherpesvirus 5, AD169, HFF, 168 h
Pseudomonas aeruginosa [12] = assay: Antibacterial activity against Pseudomonas aeruginosa ATCC 27853 incubated for 24 hrs by CLSI-based macrobroth dilution method; type: functional

SMILES: C[C@H]1[C@@H](CCS(=O)(=O)CC[C@H]2O[C@@H]3O[C@]4(C)CC[C@H]5[C@H](C)CC[C@@H]([C@H]2C)[C@@]35OO4)O[C@@H]2O[C@]3(C)CC[C@H]4[C@H](C)CC[C@@H]1[C@@]24OO3
- EC50 (MCF7): 25 nM

- MIC (Escherichia coli [1]): 1 µg/mL (≈ 1.58 µM)
- MIC (Staphylococcus aureus [2]): 0.5 µg/mL (≈ 0.789 µM)
SMILES: COc1cc(Cc2cnc(N)nc2N)cc(OC)c1OCCN1CCN(c2cc3c(cc2F)c(=O)c(C(=O)O)cn3C2CC2)CC1

SMILES: N[C@@H](CCl)C(=O)N[C@@H](CCl)C(=O)OCC1=C(C(=O)O)N2C(=O)[C@@H](NC(=O)Cc3cccs3)[C@H]2SC1
- MIC (Escherichia coli [1]): 7.05 µg/mL (≈ 12.5 µM)

- MIC (Pseudomonas aeruginosa [3]): 8 µg/mL (≈ 7.85 µM)
SMILES: NCCCCC(N)C(=O)N(CCCCCCCCCCCCO[C@@H]1[C@@H](O[C@@H]2O[C@H](CO)[C@@H](O)[C@H](N)[C@H]2O)[C@H](N)C[C@H](N)[C@H]1O[C@H]1O[C@H](CN)[C@@H](O)[C@H](O)[C@H]1N)Cc1c2ccccc2c(Cl)c2ccccc12 (stereo not given in full)

- IC50 (Plasmodium falciparum [4]): 1410 nM
SMILES: COc1cc(NCCCCn2c(-c3ccc(F)cc3)c(-c3ccccc3)c(C(=O)Nc3ccccc3)c2C(C)C)c2ncccc2c1

SMILES: C[C@H]1[C@H](OC(=O)CCC(=O)NCCNc2ccnc3cc(Cl)ccc23)O[C@@H]2O[C@@]3(C)CC[C@H]4[C@H](C)CC[C@@H]1[C@@]24OO3
- EC50 (Plasmodium falciparum [5]): 1 nM
- EC50 (Plasmodium falciparum [6]): 0.78 nM

SMILES: C[C@H]1[C@@H](OCc2cn(-c3ccnc4cc(Cl)ccc34)nn2)O[C@@H]2O[C@@]3(C)CC[C@H]4[C@H](C)CC[C@@H]1[C@@]24OO3
- EC50 (Plasmodium falciparum [5]): 5.9 nM
- EC50 (Plasmodium falciparum [6]): 4.3 nM

SMILES: C[C@H]1[C@H](OC(=O)CCC(=O)OCc2cn(-c3ccnc4cc(Cl)ccc34)nn2)O[C@@H]2O[C@@]3(C)CC[C@H]4[C@H](C)CC[C@@H]1[C@@]24OO3
- EC50 (Plasmodium falciparum [5]): 4.2 nM
- EC50 (Plasmodium falciparum [6]): 1.8 nM

SMILES: CCN(CC)CCCC(C)Nc1ccnc2cc(Cl)ccc12 (stereo not given) [CHLOROQUINE]
- EC50 (Plasmodium falciparum [5]): 165 nM
- EC50 (Plasmodium falciparum [6]): 303 nM

- MIC (Escherichia coli [7]): 0.5 µg/mL (≈ 1.06 µM)
- MIC (Staphylococcus aureus [8]): 0.5 µg/mL (≈ 1.06 µM)
- MIC (Citrobacter freundii): 0.5 µg/mL (≈ 1.06 µM)
- MIC (Enterobacter cloacae): 0.5 µg/mL (≈ 1.06 µM)
- MIC (Hafnia alvei): 0.5 µg/mL (≈ 1.06 µM)
- MIC (Klebsiella aerogenes): 0.5 µg/mL (≈ 1.06 µM)
- MIC (Providencia rettgeri): 0.5 µg/mL (≈ 1.06 µM)
- MIC (Morganella morganii [9]): 0.5 µg/mL (≈ 1.06 µM)
- MIC (Morganella morganii [10]): 0.5 µg/mL (≈ 1.06 µM)
- MIC (Proteus mirabilis): 0.5 µg/mL (≈ 1.06 µM)
SMILES: O=C(O)C1=C(CSc2cccc[n+]2[O-])CS[C@@H]2[C@H](NC(=O)[C@H](O)c3ccccc3)C(=O)N12

SMILES: C[C@H]1[C@H](OC(=O)CCC(=O)OCCOC(=O)CC(=O)OCCOC(=O)CCC(=O)O[C@@H]2O[C@@H]3O[C@@]4(C)CC[C@H]5[C@H](C)CC[C@@H]([C@H]2C)[C@@]35OO4)O[C@@H]2O[C@@]3(C)CC[C@H]4[C@H](C)CC[C@@H]1[C@@]24OO3
- EC50 (Plasmodium falciparum [11]): 1.4 nM

SMILES: C[C@H]1[C@@H](OCCNC(=Nc2cc(C(F)(F)F)ccc2Cl)NCCO[C@H]2O[C@@H]3O[C@]4(C)CC[C@H]5[C@H](C)CC[C@@H]([C@H]2C)[C@@]35OO4)O[C@@H]2O[C@]3(C)CC[C@H]4[C@H](C)CC[C@@H]1[C@@]24OO3
- EC50 (MDA-MB-231): 1420 nM
- EC50 (A549): 240 nM
- EC50 (HT-29): 1400 nM

SMILES: C[C@H]1[C@H](OC(=O)CCC(=O)OCCCNc2ncnc3c(C#N)c(-c4ccc(C(F)(F)F)cc4)cc(-c4ccc(C(F)(F)F)cc4)c23)O[C@@H]2O[C@]3(C)CC[C@H]4[C@H](C)CC[C@@H]1[C@@]24OO3
- EC50 (Human betaherpesvirus 5): 100 nM

- MIC (Pseudomonas aeruginosa [12]): 4 µg/mL (≈ 4.08 µM)
SMILES: NC[C@H]1O[C@H](O[C@H]2[C@H](OCCCCCCCCCCCCN3CCN(c4cc5c(cc4F)c(=O)c(C(=O)O)cn5C4CC4)CC3)[C@@H](O[C@@H]3O[C@H](CO)[C@@H](O)[C@H](N)[C@H]3O)[C@H](N)C[C@@H]2N)[C@H](N)[C@@H](O)[C@@H]1O
